Measurements reported in the supplement of paper PMC8149375.

What was measured:
Details in all cases: treatment: drug + dasatinib (fixed dose, not stated); 5 days
[1] = system: 786-O; experiment: GI50 of drug in presence of dasatinib; higher = less potent
Protocol: (§1)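 Primary HTS combination arm: 8 RCC cell lines treated with 8 doses (up to 10 uM) of each library drug plus a fixed dose of dasatinib (dose not stated) for 5 days; viability read by CellTiter-Glo and normalised to DMSO. GI50 was fitted with XLfit, AUC is the area under the dose-response curve, and minimum viability is the lowest fraction of DMSO viability across doses.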

[2] = system: SN12C; experiment: as above
Protocol: as §1

[3] = system: ACHN; experiment: as above
Protocol: as §1

[4] = system: TK-10; experiment: as above
Protocol: as §1

[5] = system: 769-P; experiment: as above
Protocol: as §1

[6] = system: A498; experiment: as above
Protocol: as §1

[7] = system: CAKI-1; experiment: as above
Protocol: as §1

[8] = system: UO-31; experiment: as above
Protocol: as §1

[9] = system: 786-O; experiment: AUC of dose-response viability curve, drug + dasatinib, normalised to DMSO (arbitrary (AUC of normalised viability)); higher = less growth inhibition
Protocol: as §1

[10] = system: SN12C; experiment: as above
Protocol: as §1

[11] = system: ACHN; experiment: as above
Protocol: as §1

[12] = system: TK-10; experiment: as above
Protocol: as §1

[13] = system: 769-P; experiment: as above
Protocol: as §1

[14] = system: A498; experiment: as above
Protocol: as §1

[15] = system: CAKI-1; experiment: as above
Protocol: as §1

[16] = system: UO-31; experiment: as above
Protocol: as §1

[17] = system: 786-O; experiment: minimum viability across doses, drug + dasatinib, relative to DMSO (fraction); higher = less growth inhibition
Protocol: as §1

[18] = system: SN12C; experiment: as above
Protocol: as §1

[19] = system: ACHN; experiment: as above
Protocol: as §1

[20] = system: TK-10; experiment: as above
Protocol: as §1

[21] = system: 769-P; experiment: as above
Protocol: as §1

[22] = system: A498; experiment: as above
Protocol: as §1

[23] = system: CAKI-1; experiment: as above
Protocol: as §1

[24] = system: UO-31; experiment: as above
Protocol: as §1

Row | Compound | GI50 of drug [1] | GI50 of drug [2] | GI50 of drug [3] | GI50 of drug [4] | GI50 of drug [5] | GI50 of drug [6] | GI50 of drug [7] | GI50 of drug [8] | AUC of dose-response viability curve [9] | AUC of dose-response viability curve [10] | AUC of dose-response viability curve [11] | AUC of dose-response viability curve [12] | AUC of dose-response viability curve [13] | AUC of dose-response viability curve [14] | AUC of dose-response viability curve [15] | AUC of dose-response viability curve [16] | minimum viability across doses [17] | minimum viability across doses [18] | minimum viability across doses [19] | minimum viability across doses [20] | minimum viability across doses [21] | minimum viability across doses [22] | minimum viability across doses [23] | minimum viability across doses [24]
1 | COc1cccc(-c2cc(=O)c3ccccc3o2)c1N + Cc1nc(Nc2ncc(C(=O)Nc3c(C)cccc3Cl)s2)cc(N2CCN(CCO)CC2)n1 [dasatinib] | > 10000 nM | > 10000 nM | > 10000 nM | > 10000 nM | > 10000 nM | > 10000 nM | > 10000 nM | > 10000 nM | 2.58 | 2.49 | 2.01 | 2.57 | 2.48 | 3.37 | 2.27 | 3.99 | 0.541 | 0.658 | 0.511 | 0.655 | 0.645 | 0.908 | 0.612 | 1.08
2 | COc1cc2ncnc(Nc3ccc(F)c(Cl)c3)c2cc1NC(=O)/C=C/CN1CCCCC1 + Cc1nc(Nc2ncc(C(=O)Nc3c(C)cccc3Cl)s2)cc(N2CCN(CCO)CC2)n1 [dasatinib] | < 3 nM | 567 nM | < 3 nM | 53.6 nM | 25.5 nM | 2350 nM | 485 nM | 1160 nM | 1.02 | 1.81 | 0.908 | 1.46 | 1.25 | 2.74 | 1.63 | 2.31 | 0.0063 | 0.00664 | 0.00207 | 0.00803 | 0.00783 | 0.0146 | 0.00568 | 0.0145
3 | Cc1cc(C)c(/C=C2\C(=O)Nc3ccccc32)[nH]1 [Semaxanib (SU5416)] + Cc1nc(Nc2ncc(C(=O)Nc3c(C)cccc3Cl)s2)cc(N2CCN(CCO)CC2)n1 [dasatinib] | > 10000 nM | > 10000 nM | > 10000 nM | > 10000 nM | > 10000 nM | > 10000 nM | > 10000 nM | > 10000 nM | 2.4 | 2.46 | 1.99 | 2.54 | 2.48 | 3.96 | 2.21 | 4.67 | 0.606 | 0.666 | 0.472 | 0.657 | 0.658 | 1.01 | 0.584 | 1.2
4 | COc1cc2ncnc(Nc3cccc(Br)c3)c2cc1OC.Cl + Cc1nc(Nc2ncc(C(=O)Nc3c(C)cccc3Cl)s2)cc(N2CCN(CCO)CC2)n1 [dasatinib] | 2860 nM | > 10000 nM | 5.77 nM | 884 nM | 111 nM | > 10000 nM | 2490 nM | 8520 nM | 2.14 | 2.32 | 1.18 | 2.19 | 1.69 | 3.5 | 2.22 | 2.94 | 0.0127 | 0.547 | 0.181 | 0.124 | 0.157 | 0.835 | 0.237 | 0.0122
5 | CCN1CCN(Cc2ccc(-c3cc4c(N[C@H](C)c5ccccc5)ncnc4[nH]3)cc2)CC1 [AEE788 (NVP-AEE788)] + Cc1nc(Nc2ncc(C(=O)Nc3c(C)cccc3Cl)s2)cc(N2CCN(CCO)CC2)n1 [dasatinib] | 4450 nM | 2100 nM | 13.7 nM | 305 nM | 298 nM | 5830 nM | 1770 nM | 1790 nM | 2.38 | 2.16 | 1.19 | 1.92 | 1.81 | 2.9 | 2 | 2.92 | 0.0446 | 0.218 | 0.0466 | 0.0139 | 0.0653 | 0.258 | 0.0223 | 0.00751
6 | C[C@@H](Oc1cc(-c2cnn(C3CCNCC3)c2)cnc1N)c1c(Cl)ccc(F)c1Cl + Cc1nc(Nc2ncc(C(=O)Nc3c(C)cccc3Cl)s2)cc(N2CCN(CCO)CC2)n1 [dasatinib] | 798 nM | 748 nM | 475 nM | 3550 nM | 2260 nM | 3260 nM | 837 nM | 539 nM | 2.22 | 1.98 | 1.81 | 2.65 | 2.43 | 2.68 | 1.91 | 2.11 | 0.00845 | 0.175 | 0.0735 | 0.149 | 0.0606 | 0.284 | 0.0151 | 0.0115
7 | O=C(Cc1ccc(-c2ccc(OCCN3CCOCC3)cc2)cn1)NCc1ccccc1 [KX2-391] + Cc1nc(Nc2ncc(C(=O)Nc3c(C)cccc3Cl)s2)cc(N2CCN(CCO)CC2)n1 [dasatinib] | 14.9 nM | 46.7 nM | 43.3 nM | 104 nM | 35.9 nM | 77.6 nM | 29.5 nM | 92.6 nM | 0.764 | 1.34 | 1.23 | 1.69 | 1.09 | 1.78 | 1.12 | 1.77 | 0.00445 | 0.114 | 0.1 | 0.243 | 0.0616 | 0.166 | 0.111 | 0.00946
8 | CCOC(=O)C1=C(N)Oc2ccc(Br)cc2[C@H]1[C@H](C#N)C(=O)OCC [HA14-1] + Cc1nc(Nc2ncc(C(=O)Nc3c(C)cccc3Cl)s2)cc(N2CCN(CCO)CC2)n1 [dasatinib] | > 10000 nM | > 10000 nM | > 10000 nM | > 10000 nM | > 10000 nM | > 10000 nM | > 10000 nM | > 10000 nM | 2.65 | 2.54 | 2.17 | 2.71 | 2.77 | 3.14 | 2.35 | 3.92 | 0.624 | 0.69 | 0.579 | 0.725 | 0.737 | 0.797 | 0.628 | 0.952
9 | Cl.Cl.Fc1cc(-c2cccc3ncc(-c4cnn(C5CCNCC5)c4)nc23)cc(F)c1CN1CCOCC1 [NVP-BSK805] + Cc1nc(Nc2ncc(C(=O)Nc3c(C)cccc3Cl)s2)cc(N2CCN(CCO)CC2)n1 [dasatinib] | 44.1 nM | 2430 nM | 380 nM | 1420 nM | 3940 nM | 5130 nM | 962 nM | 2940 nM | 1.85 | 2.15 | 1.64 | 2.08 | 2.29 | 3.09 | 1.9 | 3.35 | 0.00448 | 0.127 | 0.0139 | 0.108 | 0.37 | 0.0371 | 0.0163 | 0.0214
10 | Nc1nc(NCCNc2ncc(-n3ccnc3)c(-c3ccc(Cl)cc3Cl)n2)ccc1[N+](=O)[O-] + Cc1nc(Nc2ncc(C(=O)Nc3c(C)cccc3Cl)s2)cc(N2CCN(CCO)CC2)n1 [dasatinib] | 552 nM | 7550 nM | 1830 nM | 1590 nM | 1540 nM | 9900 nM | 1230 nM | 1600 nM | 1.93 | 2.28 | 1.88 | 2.25 | 2.13 | 3.68 | 2 | 3.5 | 0.00601 | 0.268 | 0.0281 | 0.0534 | 0.0308 | 0.474 | 0.0567 | 0.0119
11 | COc1ccc2c(OCc3nnc4ccc(-c5ccccc5)nn34)ccnc2c1 [AMG-208] + Cc1nc(Nc2ncc(C(=O)Nc3c(C)cccc3Cl)s2)cc(N2CCN(CCO)CC2)n1 [dasatinib] | > 10000 nM | > 10000 nM | > 10000 nM | > 10000 nM | > 10000 nM | > 10000 nM | > 10000 nM | > 10000 nM | 2.6 | 2.52 | 2.07 | 2.54 | 2.4 | 3.32 | 2.24 | 3.91 | 0.68 | 0.688 | 0.544 | 0.642 | 0.634 | 0.805 | 0.613 | 0.987
12 | CCCCOc1c(C(=O)c2c(F)cc(C)cc2F)cnc2[nH]ncc12 + Cc1nc(Nc2ncc(C(=O)Nc3c(C)cccc3Cl)s2)cc(N2CCN(CCO)CC2)n1 [dasatinib] | 25.2 nM | > 10000 nM | 15 nM | 322 nM | > 10000 nM | > 10000 nM | 2580 nM | 2650 nM | 1.09 | 2.47 | 1.18 | 1.89 | 2.26 | 3.45 | 1.94 | 3.38 | 0.0144 | 0.565 | 0.135 | 0.377 | 0.52 | 0.795 | 0.378 | 0.182
13 | CNC(=O)c1ccc(-c2cnc3ncc(Cc4ccc5ncccc5c4)n3n2)cc1F + Cc1nc(Nc2ncc(C(=O)Nc3c(C)cccc3Cl)s2)cc(N2CCN(CCO)CC2)n1 [dasatinib] | > 10000 nM | > 10000 nM | 9070 nM | > 10000 nM | 7570 nM | > 10000 nM | > 10000 nM | > 10000 nM | 2.19 | 2.42 | 2.05 | 2.44 | 2.42 | 3.63 | 2.26 | 4.11 | 0.576 | 0.659 | 0.497 | 0.656 | 0.457 | 0.918 | 0.571 | 0.991
14 | CN1CCN(c2ccc([N+](=O)[O-])c3no[n+]([O-])c23)CC1 + Cc1nc(Nc2ncc(C(=O)Nc3c(C)cccc3Cl)s2)cc(N2CCN(CCO)CC2)n1 [dasatinib] | > 10000 nM | > 10000 nM | > 10000 nM | > 10000 nM | > 10000 nM | > 10000 nM | > 10000 nM | > 10000 nM | 2.2 | 2.52 | 2.07 | 2.41 | 2.12 | 3.19 | 2.27 | 3.44 | 0.517 | 0.687 | 0.539 | 0.64 | 0.644 | 0.862 | 0.624 | 0.864
15 | Cn1cc(C2=C(c3ccc(Cl)cc3Cl)C(=O)NC2=O)c2ccccc21 + Cc1nc(Nc2ncc(C(=O)Nc3c(C)cccc3Cl)s2)cc(N2CCN(CCO)CC2)n1 [dasatinib] | > 10000 nM | > 10000 nM | > 10000 nM | > 10000 nM | 5290 nM | > 10000 nM | > 10000 nM | 6210 nM | 2.55 | 2.53 | 2.2 | 2.74 | 2.36 | 3.8 | 0.956 | 3.15 | 0.587 | 0.642 | 0.548 | 0.532 | 0.288 | 0.929 | 0.562 | 0.191
